Assay results as given in US10947218B2, “Aminopyridine derivatives and their use as selective ALK-2 inhibitors” (priority 2016, dated 2021).
Where a name gives a salt, the structure may show the parent alone.

Experiments:
[1] = Dynamic Vapor Sorption (physical stability versus relative humidity); assay type: physicochemical
Method: The peaks found are: Wave number (in cm^−1): 3241(m), 2951(w), 2867(w), 1669(m), 1538(m), 1456(w), 1355(m), 1249(m), 1087(w), 979(w), 885(w), 797(w). […] Then 3 mL of heptane were added into the solution. White solid precipitated out. The solid was separated by suction filtration and dried at 40° C. under vacuum overnight. 380 mg of a fumarate salt amorphous form of 2-amino-N-(4-hydroxybicyclo[2.2.2]octan-1-yl)-5-(4-((1R,5S)-3-(tetrahydro-2H-pyran-4-yl)-3-azabicyclo[3.1.0]hexan-1-yl)phenyl)nicotinamide was obtained as a white solid. […] Resulting mixture was stirred at 50° C. for 0.5 hour and a clear solution was obtained. To the solution was slowly added a solution of 695.2 mg in 10 mL of acetone:water (95:5, v/v). Resulting suspension was gradually cooled to 25° C. and was kept stirring for 24 hours. Add 1.5 mL water to the suspension. The mixture was kept stirring at 50° C. for 12 hours and slowly cooled to 25° C. Solid was separated by suction filtration, washed with 10 mL acetone:water (90:10, v/v) once, and exposed to an ambient environment (about 25° C., 50% RH) overnight. […]

[2] = Solubility in aqueous media (25° C., 24 h equilibration); assay type: physicochemical; settings: pH 9.0 borate buffer/8.6, target concentration 2 mg/mL

Nc1ncc(-c2ccc([C@@]34C[C@@H]3CN(C3CCOCC3)C4)cc2)cc1C(=O)NC12CCC(O)(CC1)CC2 [Fumarate salt Modification HA, 2-amino-N-(4-hydroxybicyclo[2.2.2]octan-1-yl)-5-(4-((1R,5S)-3-(tetrahydro-2H-pyran-4-yl)-3-azabicyclo[3.1.0]hexan-1-yl)phenyl)nicotinamide]
physical stability over relative humidity (DVS) ([1]; 25° C., FIG. 15): physically stable at least from 0% to 90% RH
physical stability over relative humidity (DVS) ([1]; 40° C., FIG. 16): physically stable at least from 10% to 90% RH

Nc1ncc(-c2ccc([C@@]34C[C@@H]3CN(C3CCOCC3)C4)cc2)cc1C(=O)NC12CCC(O)(CC1)CC2 [Free form Modification HA, 2-amino-N-(4-hydroxybicyclo[2.2.2]octan-1-yl)-5-(4-((1R,5S)-3-(tetrahydro-2H-pyran-4-yl)-3-azabicyclo[3.1.0]hexan-1-yl)phenyl)nicotinamide]
solubility [2]: <LOQ
